The text below walks through data of patent US9834558B2, “Substituted bridged urea analogs as sirtuin modulators” (GLAXOSMITHKLINE LLC, priority 2013, dated 2017).

Molecules are shown by their SMILES.

This assay concerns the target T1, SIRT1 (Homo sapiens, UniProt Q96EB6).
T1 sequence (Q96EB6 1-747): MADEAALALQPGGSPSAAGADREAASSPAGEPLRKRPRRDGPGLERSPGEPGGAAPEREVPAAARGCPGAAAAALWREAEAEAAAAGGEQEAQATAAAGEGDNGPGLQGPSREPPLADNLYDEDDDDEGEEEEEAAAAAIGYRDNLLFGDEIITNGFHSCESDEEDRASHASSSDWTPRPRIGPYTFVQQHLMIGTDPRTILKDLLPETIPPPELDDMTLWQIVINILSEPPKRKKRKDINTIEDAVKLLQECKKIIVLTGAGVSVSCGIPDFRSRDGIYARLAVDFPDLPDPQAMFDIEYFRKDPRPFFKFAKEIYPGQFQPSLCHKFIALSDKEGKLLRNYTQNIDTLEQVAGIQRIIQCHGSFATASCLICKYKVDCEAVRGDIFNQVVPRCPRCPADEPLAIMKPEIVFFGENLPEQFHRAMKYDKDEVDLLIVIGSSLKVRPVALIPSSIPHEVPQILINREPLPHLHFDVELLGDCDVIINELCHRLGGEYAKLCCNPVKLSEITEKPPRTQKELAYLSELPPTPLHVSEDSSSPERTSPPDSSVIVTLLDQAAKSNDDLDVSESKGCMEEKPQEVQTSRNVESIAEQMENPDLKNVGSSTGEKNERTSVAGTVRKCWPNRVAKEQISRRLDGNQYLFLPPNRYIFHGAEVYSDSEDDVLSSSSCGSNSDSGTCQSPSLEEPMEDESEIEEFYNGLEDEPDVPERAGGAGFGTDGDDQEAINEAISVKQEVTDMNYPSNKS
Put plainly: Trp mass spectrometry assay of SIRT1 activation. Format: biochemical. Conditions: Trp peptide assay; for TRP Activity (EC1.5): EC1.5 = concentration that results in 150% activation of SIRT1; for Emax: maximum activity relative to control (100%), read-out: TRP MAX RESP (percent maximum fold activation). The gist of the method:
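Activation read-out: mass-spec measurement of O-acetyl-ADP-ribose or deacetylated Trp peptide versus compound-free controls, giving EC1.5 and Percent Maximum Activation. Reactions ran 25 min at 25 °C, pH 7.5, with 120 μM βNAD+, 0.5 μM acetylated p53-derived peptide and 10 nM His-tagged SIRT1.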

With `Cn1nc(C(F)(F)F)cc1-c1ccc2c(n1)N(C(=O)Nc1cnccn1)[C@H]1CCN2C1` [(9S)-5-[1-methyl-3-(trifluoromethyl)-1H-pyrazol-5-yl]-N-(pyrazin-2-yl)-1,6,8-triazatricyclo[7.2.1.0 {2,7}]dodeca-2(7),3,5-triene-8-carboxamide], the “TRP Activity (EC1.5)” value is “B (B (EC1.5 1-25 μM))” and the Emax was > 150%.

For `O=C(Nc1cnccn1)N1c2nc(-c3ccnc(C(F)F)c3)ccc2N2CC[C@H]1C2` [(9S)-5-[2-(difluoromethyl)pyridin-4-yl]-N-(pyrazin-2-yl)-1,6,8-triazatricyclo[7.2.1.0 {2,7}]dodeca-2(7),3,5-triene-8-carboxamide], the “TRP Activity (EC1.5)” value is “A (A (EC1.5<1 μM))” and the Emax is > 150%.

`CN(C)c1cc(-c2ccc3c(n2)N(C(=O)Nc2cnccn2)[C@H]2CCN3C2)ccn1` [(9S)-5-[2-(dimethylamino)pyridin-4-yl]-N-(pyrazin-2-yl)-1,6,8-triazatricyclo[7.2.1.0 {2,7}]dodeca-2(7),3,5-triene-8-carboxamide]: the “TRP Activity (EC1.5)” value is on record as “B (B (EC1.5 1-25 μM))” and the Emax was > 150%.

As to `O=C(Nc1cnccn1)N1c2nc(-c3ccnc(CO)c3)ccc2N2CC[C@H]1C2` [(9S)-5-[2-(hydroxymethyl)pyridin-4-yl]-N-(pyrazin-2-yl)-1,6,8-triazatricyclo[7.2.1.0 {2,7}]dodeca-2(7),3,5-triene-8-carboxamide], the “TRP Activity (EC1.5)” value is on record as “B (B (EC1.5 1-25 μM))” and the Emax is > 150%.

On to `CNc1cc(-c2ccc3c(n2)N(C(=O)Nc2cnccn2)[C@H]2CCN3C2)ccn1` [(9S)-5-[2-(methylamino)pyridin-4-yl]-N-(pyrazin-2-yl)-1,6,8-triazatricyclo[7.2.1.0 {2,7}]dodeca-2(7),3,5-triene-8-carboxamide], for which the “TRP Activity (EC1.5)” value is “B (B (EC1.5 1-25 μM))” and the Emax is > 150%.

In the case of `CC(C)c1cc(-c2ccc3c(n2)N(C(=O)Nc2cnccn2)[C@H]2CCN3C2)ccn1` [(9S)-5-[2-(propan-2-yl)pyridin-4-yl]-N-(pyrazin-2-yl)-1,6,8-triazatricyclo[7.2.1.0 {2,7}]dodeca-2,4,6-triene-8-carboxamide], the “TRP Activity (EC1.5)” value was “A (A (EC1.5<1 μM))” and the Emax is > 150%.

Consider `Cc1cc(-c2ccc3c(n2)N(C(=O)Nc2cnccn2)[C@H]2CCN3C2)cc(C(F)(F)F)n1` [(9S)-5-[2-methyl-6-(trifluoromethyl)pyridin-4-yl]-N-(pyrazin-2-yl)-1,6,8-triazatricyclo[7.2.1.0 {2,7}]dodeca-2(7),3,5-triene-8-carboxamide], for which the “TRP Activity (EC1.5)” value was “A (A (EC1.5<1 μM))” and the Emax is > 150%.

On to `CN(C)c1cccc(-c2ccc3c(n2)N(C(=O)Nc2cnccn2)[C@H]2CCN3C2)c1` [(9S)-5-[3-(dimethylamino)phenyl]-N-(pyrazin-2-yl)-1,6,8-triazatricyclo[7.2.1.0 {2,7}]dodeca-2(7),3,5-triene-8-carboxamide], for which the “TRP Activity (EC1.5)” value was “B (B (EC1.5 1-25 μM))” and the Emax is > 150%.

As for `O=C(Nc1cnccn1)N1c2nc(-c3ccc(OC(F)F)nc3)ccc2N2CC[C@H]1C2` [(9S)-5-[6-(difluoromethoxy)pyridin-3-yl]-N-(pyrazin-2-yl)-1,6,8-triazatricyclo[7.2.1.0 {2,7}]dodeca-2(7),3,5-triene-8-carboxamide], the “TRP Activity (EC1.5)” value is given as “B (B (EC1.5 1-25 μM))” and the Emax is > 150%.

In the case of `O=C(Nc1cnccn1)N1c2nc(-c3ccc(CO)nc3)ccc2N2CC[C@H]1C2` [(9S)-5-[6-(hydroxymethyl)pyridin-3-yl]-N-(pyrazin-2-yl)-1,6,8-triazatricyclo[7.2.1.0 {2,7}]dodeca-2(7),3,5-triene-8-carboxamide], the “TRP Activity (EC1.5)” value is listed as “B (B (EC1.5 1-25 μM))” and the Emax was > 150%.

Take `O=C(Nc1cnccn1)N1c2nc(-c3cnc(C4CC4)c(C(F)(F)F)c3)ccc2N2CC[C@H]1C2` [(9S)-5-[6-cyclopropyl-5-(trifluoromethyl)pyridin-3-yl]-N-(pyrazin-2-yl)-1,6,8-triazatricyclo[7.2.1.0 {2,7}]dodeca-2,4,6-triene-8-carboxamide]: the “TRP Activity (EC1.5)” value is reported as “A (A (EC1.5<1 μM))” and the Emax was > 150%.

In the case of `CC[C@@H]1CN(c2ccc3c(n2)N(C(=O)Nc2cnccn2)[C@H]2CCN3C2)CCO1` [(9S)-5-[(2R)-2-ethylmorpholin-4-yl]-N-(pyrazin-2-yl)-1,6,8-triazatricyclo[7.2.1.0^{2,7}]dodeca-2(7),3,5-triene-8-carboxamide], the “TRP Activity (EC1.5)” value is on record as “B (B (EC1.5 1-25 μM))” and the Emax is > 150%.

`C[C@@H]1CN(c2ccc3c(n2)N(C(=O)Nc2cnccn2)[C@H]2CCN3C2)CCO1` [(9S)-5-[(2R)-2-methylmorpholin-4-yl]-N-(pyrazin-2-yl)-1,6,8-triazatricyclo[7.2.1.0 {2,7}]dodeca-2,4,6-triene-8-carboxamide]: the “TRP Activity (EC1.5)” value is reported as “B (B (EC1.5 1-25 μM))” and the Emax is > 150%.

With `C[C@@H]1CN(c2ccc3c(n2)N(C(=O)Nc2cnccn2)[C@H]2CCN3C2)C[C@H](C)O1` [(9S)-5-[(2R,6S)-2,6-dimethylmorpholin-4-yl]-N-(pyrazin-2-yl)-1,6,8-triazatricyclo[7.2.1.0 {2,7}]dodeca-2(7),3,5-triene-8-carboxamide], the “TRP Activity (EC1.5)” value was “B (B (EC1.5 1-25 μM))” and the Emax is > 150%.

In the case of `C[C@H]1CN(c2ccc3c(n2)N(C(=O)Nc2cnccn2)[C@H]2CCN3C2)CCO1` [(9S)-5-[(2S)-2-methylmorpholin-4-yl]-N-(pyrazin-2-yl)-1,6,8-triazatricyclo[7.2.1.0 {2,7}]dodeca-2,4,6-triene-8-carboxamide], the “TRP Activity (EC1.5)” value is “B (B (EC1.5 1-25 μM))” and the Emax is > 150%.

Regarding `C[C@H]1CNCCN1c1ccc2c(n1)N(C(=O)Nc1cnccn1)[C@H]1CCN2C1` [(9S)-5-[(2S)-2-methylpiperazin-1-yl]-N-(pyrazin-2-yl)-1,6,8-triazatricyclo[7.2.1.0 {2,7}]dodeca-2,4,6-triene-8-carboxamide], the “TRP Activity (EC1.5)” value was “C (C (EC1.5>25 μM))” and the Emax was < 150%.

For `C[C@H]1CN(c2ccc3c(n2)N(C(=O)Nc2cnccn2)[C@H]2CCN3C2)C[C@H](C)O1` [(9S)-5-[(2S,6S)-2,6-dimethylmorpholin-4-yl]-N-(pyrazin-2-yl)-1,6,8-triazatricyclo[7.2.1.0^{2,7}]dodeca-2(7),3,5-triene-8-carboxamide], the “TRP Activity (EC1.5)” value is “B (B (EC1.5 1-25 μM))” and the Emax was > 150%.

As to `O=C(c1ccc2c(n1)N(C(=O)Nc1ccccn1)[C@H]1CCN2C1)N1CCC(F)(F)C1` [(9S)-5-[(3,3-difluoropyrrolidin-1-yl)carbonyl]-N-(pyridin-2-yl)-1,6,8-triazatricyclo[7.2.1.0 {2,7}]dodeca-2(7),3,5-triene-8-carboxamide], the “TRP Activity (EC1.5)” value is given as “B (B (EC1.5 1-25 μM))” and the Emax is > 150%.

For `C[C@@H]1COCCN1c1ccc2c(n1)N(C(=O)Nc1cccnc1)[C@H]1CCN2C1` [(9S)-5-[(3R)-3-methylmorpholin-4-yl]-N-(pyridin-3-yl)-1,6,8-triazatricyclo[7.2.1.0 {2,7}]dodeca-2(7),3,5-triene-8-carboxamide], the “TRP Activity (EC1.5)” value is reported as “B (B (EC1.5 1-25 μM))” and the Emax is > 150%.

For the compound `C[C@@H]1CN(c2ccc3c(n2)N(C(=O)Nc2cnccn2)[C@H]2CCN3C2)CCN1` [(9S)-5-[(3R)-3-methylpiperazin-1-yl]-N-(pyrazin-2-yl)-1,6,8-triazatricyclo[7.2.1.0 {2,7}]dodeca-2,4,6-triene-8-carboxamide], the “TRP Activity (EC1.5)” value is “C (C (EC1.5>25 μM))” and the Emax was < 150%.

As to `O=C(Nc1cccnc1)N1c2nc(N3CCOC[C@@H]3CO)ccc2N2CC[C@H]1C2` [(9S)-5-[(3S)-3-(hydroxymethyl)morpholin-4-yl]-N-(pyridin-3-yl)-1,6,8-triazatricyclo[7.2.1.0 {2,7}]dodeca-2(7),3,5-triene-8-carboxamide], the “TRP Activity (EC1.5)” value is reported as “C (C (EC1.5>25 μM))” and the Emax was < 150%.

Turning to `C[C@H]1COCCN1c1ccc2c(n1)N(C(=O)Nc1cccnc1)[C@H]1CCN2C1` [(9S)-5-[(3S)-3-methylmorpholin-4-yl]-N-(pyridin-3-yl)-1,6,8-triazatricyclo[7.2.1.0^2,7]dodeca-2(7),3,5-triene-8-carboxamide], the “TRP Activity (EC1.5)” value is recorded as “B (B (EC1.5 1-25 μM))” and the Emax was > 150%.
